Data as given in patent US8846331B2, “Asynchronous magnetic bead rotation sensing systems and methods” (The Regents of the University of Michigan, priority 2010, dated 2014).
Converted amounts (≈) assume the structure as drawn.

Experiments:
Format in all cases: cell-based, Escherichia coli
[1] = tested on: E. coli; assay: AMBR 16-well prototype, growth of E. coli on clusters of magnetic particles (FIG. 3d); conditions: 0, 2, 4 and 8 μg/mL antibiotic
Source text: FIGS. 3a-f illustrates results from one variation of a multiwell prototype device using a 16-well disposable card. […] FIG. 3b illustrates exemplary results showing raw periodic laser intensity data corresponding to the rotation of the sample for one well; FIG. 3c is an image of a 16 sensor array AMBR system prototype that incorporates low-power lasers and phototransistors to measure rotational data (with black tray that supports the disposable card). FIG. 3d illustrates a graph of antibiotic susceptibility results for averaged and normalized data with E. coli bacteria.
For example, when cell division occurs, a significant portion of the bacteria remain on the surface of the particles. Thus, a more reliable growth response may be detected (as cells are not all shed into the medium). […] Clusters may be readily detected and their rotation more easily optically resolved. […] This allows for response to antibiotics to be measured in a reproducible manner, which makes the technique more clinically relevant. FIGS. 3a-3f illustrate a prototype device that has been used as a proof-of-principle for the rotation of clusters and use of multiwell sample plates. The example shown in FIG. 3a is a 16-well disposable plate. Each well in the plate (which may also be referred to as a “card”) has been treated to contain a single cluster of magnetic particles that rotate as a group. […]

[2] = tested on: uropathogenic E. coli isolate; assay: MIC determination with the Vitek 2 system
[3] = tested on: uropathogenic E. coli; assay: AMBR with self-assembled magnetic particle clusters in hanging droplet, MIC measurement; conditions: from FIGS. 47a and 47b, rotational period of clusters
Source text: FIGS. 46a-c illustrates one example AMBR using a cluster formed in a well having a curved interface (in this example, a hanging droplet). […] This lensing effect may be used to amplify the rotational signal by magnifying the image through the droplet. […] An LED or laser light may be focused by the droplet curvature, magnifying the ‘image’ of the particle cluster a 100-fold. After the magnification, the rotational period can be observed and measured using a photodetector, thus observing a periodic signal corresponding to the rotational period of the cluster. FIG. 46b illustrates the change in cluster shape/size and rotation. The rotational period of the cluster changes accordingly: as the cluster itself expands (e.g., changing shape to have a larger diameter); as bacteria or other analytes attach to the cluster and/or expand/swell; or as the viscosity of the surrounding fluid changes. Viscosity may change if unbound cells divide and increase in number within the well. The rotational period of the cluster can be measured using the Fast Fourier Transform (FFT). The lower graphs in FIG. 46b show a shift in the peak observing the peak location. […]
The self-assembled magnetic particles shown in FIG. 47a-g enabled rapid MIC measurements, and the determined values agreed with values obtained with the traditional microdilution method. […]

[4] = tested on: uropathogenic E. coli; assay: AMBR droplet microfluidic platform, small cell-population growth response (AST); conditions: for change in rotational period (bacterial growth): monitored minimum one hour
Source text: Asynchronous magnetic bead rotation (AMBR) may be performed on hanging droplets and on oil/water emulsions (e.g., droplets of water including the magnetic beads and analyte suspended in oil). For example an AMBR biosensor may use a droplet microfluidic platform that enables single cell and small cell population growth measurements for applications aimed at rapid antimicrobial susceptibility testing (“AST”). […] Growth was observed below the MIC, and no growth was observed above the MIC. A 52% change in the sensor signal (i.e. rotational period) was observed within 15 minutes, thus allowing AST measurements to be performed within minutes.
The microfluidic platform typically forms reproducibly or uniform-sized droplets of aqueous solution (e.g., media) including magnetic particles. […] In this example, the continuous phase consisted of mineral oil with 1% SPAN 80 (v/v). For bead (magnetic particle) characterization experiments, the aqueous phase consisted of PBS solution: PBS with 1% Pluronic F-68 and 0.1% BSA. For biological experiments, the aqueous phase consisted of MH broth solution: MH with 1% Pluronic F-68 and 0.1% BSA, which will be referred to as MH-PB.
In one example, using the microfluidic device described above and in FIGS. 23a and 23b, experiments were conducted on an Olympus IX71 inverted microscope. The microfluidic device was placed inside custom-built electromagnet coils that were integrated on the microscope stage (see, e.g., FIG. 23c). In this example, the rotating magnetic field was generated with a custom LabView program and data acquisition board (NI PCI-6221). The magnetic field driving frequency range was 0.1 Hz to 1 kHz, and the magnetic field strength was 0.9 mT, as measured with a 3-axis magnetic field probe (Senis Gmbh, C-H3A-2m).
Magnetic bead characterization experiments were conducted at 21° C. Single cell experiments were conducted at 21° C., with a 100× oil immersion objective. The magnetic field driving frequency was set at 500 Hz for control and growth experiments. One-minute videos at 15 frames per second (fps) were taken in 5-minute intervals with a digital camera. Small cell-population experiments were conducted at 35° C., with a 40× objective. The microfluidic device was placed on an ITO slide that was heated and maintained at a set temperature, 35+0.2° C. This temperature was monitored by a thermocouple that was coupled to the surface of the slide with a thermally conducting silver paste, Arctic Silver 5 (ARCTIC SILVER). The magnetic field driving frequency for small cell-population control and growth experiments was set at 50 Hz, and continuous videos were taken for a minimum of 5 hours at 2 fps. For small cell-population control and antibiotic response experiments, 1-minute videos were taken at 20 fps in either 5-minute or 20-minute intervals.
As mentioned, movies were captured with a digital camera (Basler, piA640-210 gm). The videos were analyzed using ImageJ (for example, see FIG. 23d). The rotational frequency of the bead complex was determined by monitoring the fluctuations in intensity profile at the target area of interest using ImageJ s ‘plot z-axis profile’ functionality. This intensity plot was analyzed by applying a Fast Fourier Transform (FFT) to the raw ImageJ data in MATLAB. The experimental error in determining the rotational period was designated as the FFT peak's full width at half max (FWHM) of the amplitude signal. […]

[5] = tested on: E. coli; assay: AMBR multiwell card reader, rotational period growth curves (FIG. 9); conditions: FIG. 9, driving frequency 100 Hz
Procedure: FIG. 9 illustrates the rotational period (in seconds) of rotating magnetic beads with attached E. coli versus time (in minutes) for various concentrations of antibiotic (Gentamicin).
A clinical sample (e.g. blood, urine, etc) may be mixed with a Muller-Hinton (MH) or phosphate buffered saline solution that contains magnetic beads that are coated with antibodies specific to the pathogen of interest. The bacteria and beads are incubated together to allow for ample time to bind and if necessary, population growth of the bacteria. […] This solution (now containing only […]) is then placed into the disposable (preferably multiwell) plate, where the beads are asynchronously rotated in the card reader for detection/identification and antibiotic susceptibility testing, where the minimum inhibitory concentration will be determined. […] Finally, the magnetic particles are rotated in the asynchronous regime and monitored optically to determine cell growth (elongation and/or division). […]
The asynchronous rotational period of the rotating cluster of magnetic particles may be measured using the light modulation that is produced when each laser beam (or other light) passes through the small magnetic bead cluster. […] From this, the rotation rate can be measured by simply tracking the peak-to-peak distance (period) of the modulated intensity. […]

CC1(C)S[C@@H]2[C@H](NC(=O)[C@H](N)c3ccccc3)C(=O)N2[C@H]1C(=O)O [ampicillin]
effect on growth of E. coli on clusters (rotational period) [1]: acts as a growth accelerating agent

[H]/N=C(/N)N[C@H]1[C@H](O)[C@@H](O)[C@H](O[C@@H]2O[C@@H](C)[C@](O)(C=O)[C@H]2O[C@@H]2O[C@@H](CO)[C@H](O)[C@@H](O)[C@@H]2NC)[C@@H](N/C(N)=N\[H])[C@@H]1O [streptomycin]
MIC ([2]; Escherichia coli, isolate of the magnetic particle cluster experiments (FIGS. 47a-b), read-out: clinical (reference) MIC as determined with Vitek 2): 16 µg/mL (≈ 27.5 µM)
MIC ([3]; Escherichia coli, read-out: MIC measured with AMBR clusters): 8 µg/mL (≈ 13.8 µM)

gentamicin
MIC as determined with the Vitek 2 system ([2]; isolate of the droplet microfluidic experiments): 1 µg/mL
clinical (reference) MIC as determined with Vitek 2 ([2]; isolate of the magnetic particle cluster experiments (FIGS. 47a-b)): 2 µg/mL
change in rotational period (bacterial growth) ([4]; 0.5 μg/mL gentamicin): increase in rotational period
change in rotational period (bacterial growth) ([4]; 2 μg/mL gentamicin): No substantial change in the rotational period
change in rotational period (bacterial growth) ([4]; 4 μg/mL gentamicin): No substantial change in the rotational period
difference in rotational period between bacteria treated above and below the MIC ([4]; after 15 minutes): 52%
difference in rotational period between bacteria treated above and below the MIC ([4]; within 25 minutes): 100%
minimum inhibitory concentration (MIC) from AMBR growth curves [5]: 2 µg/mL
MIC measured with AMBR clusters [3]: 2 µg/mL
